Measurements taken from paper PMC10374545, “A small molecule inhibitor of PTP1B and PTPN2 enhances T cell anti-tumor immunity” (Nature Communications, 2023).
Several values for one entry are separate records, joined by “and”; a condition that tells them apart may be missing. Identical values can stand only once.

Tests used:
AT3-OVA mammary tumors = assay: Tumor-infiltrating lymphocytes in AT3-OVA tumors of Lck-Cre;Ptpn2fl/fl mice; format: in vivo, mouse; set-up: NK cells / Tregs / MDSCs / CD4 EM / CD8 EM / B cells / IFNg TNF / GRZMB: unit not given here
Description: (§1) Tumor-bearing mice were sacrificed and tumors were excised and digested at 37 °C for 30 min using a cocktail of 1 mg/ml collagenase type IV (Worthington Biochemicals) and 0.02 mg/ml DNase I (Sigma-Aldrich) in DMEM supplemented with 2% (v/v) FBS. Cells were passed through a 70 μm cell strainer (BD Biosciences) twice and processed for flow cytometry. For assessing T cell activation, cells were surface stained with fluorophore-conjugated antibodies to CD62L, CD44, PD-1, and TIM-3. For the assessment of NK cells, B cells, myeloid-derived suppressor cells (MDSCs), dendritic cells (DCs), and tumor-associated macrophages, cells were surface stained with fluorophore-conjugated antibodies to NK1.1, TCRβ, CD19, CD11b, CD11c, F4/80, Ly6C and Ly6G. For the detection of intracellular cytokines TNF and IFNγ, T cells were stimulated with PMA (20 ng/ml; Sigma-Aldrich) and ionomycin (1 μg/ml; Sigma-Aldrich) in the presence of GolgiPlug™ and GolgiStop™ (BD Biosciences) for 4 h at 37 °C in complete T cell medium. For the intracellular detection of granzyme B, cells were processed untreated without the addition of BD GolgiPlug™ and BD GolgiStop™.

[1] = Morbidity and overt toxicity in treated tumor-bearing mice
Description: Control animals received an injection at the same time of 200 μl of saline. Stock solutions were stored at −80 °C and thawed before each administration.

[2] = Histology of liver, lungs, salivary glands, colon (H&E, Sirius Red); format: in vivo, mouse; conditions: 10 mg/kg i.v.
MC38 colon tumors [3] = assay: Tumor-infiltrating lymphocytes in MC38 tumors; format: in vivo, mouse; set-up: CD4 EM, individual mice / CD8 EM, individual mice / GRZMB, individual mice / B cells, individual mice / NK cells, individual mice / Tregs, individual mice / MDSCs, individual mice: unit not given here
Description: as §1

MC38 colon tumors [4] = assay: MC38 colon tumor growth in C57BL/6 mice; format: in vivo, mouse
Description: Male or female mice were injected subcutaneously with 5 × 10^5 MC38 tumor cells resuspended in 100 μl D-PBS into the flank. Alternatively, female mice were injected orthotopically with 5 × 10^5 AT3 or AT3-OVA or PTPN2-deleted AT3 or AT3-OVA tumor cells resuspended in 20 μl D-PBS into the fourth mammary fat pad. Tumor sizes were measured in two dimensions (mm^2) using electronic callipers two to three times per week as soon as tumors were palpable (20–25 mm^2).

spleen = assay: Spleen weight, splenocytes and splenic CD8+ EM T cell signaling in AT3-OVA tumor-bearing mice; format: in vivo, mouse
Description: Single-cell suspensions from spleens and lymph nodes were obtained as described previously. For the detection of intracellular cytokines and granzyme B, T cells were fixed and permeabilized with the BD Cytofix/Cytoperm kit according to the manufacturer’s instructions. Briefly, T cells were first surface stained with fluorophore-conjugated antibodies and then fixed followed by permeabilization on ice for 20 min. Fixed and permeabilized cells were stained for IFN-γ, TNF, and granzyme B for 45 min at room temperature. For the detection of intracellular FoxP3 the Foxp3/Transcription Factor Staining Buffer Set (eBioscience) was used according to the manufacturer’s instructions. Briefly, cells were fixed and permeabilized for 1 h on ice followed by intracellular staining at room temperature for 45 min. For the detection of serum cytokines, the BD CBA Mouse Inflammation Kit™ was used according to the manufacturers’ instructions.
Cells (1 × 10^6/10 µl) were stained with the specified antibodies on ice for 30 min in D-PBS supplemented with 2% FBS in the dark and analyzed using a Fortessa or Symphony A3 (BD Biosciences). Data was acquired using BD FACS DIVA Software v8.0.1 and analyzed using FlowJo10 (Tree Star Inc.) software. Lymphocytes were gated for eYFP^+ cells to discriminate between PTPN2 sufficient and PTPN2 negative cells after poly(I:C)-induced PTPN2-deletion in Mx1-Cre;Ptpn2^fl/fl mice. For cell quantification, known numbers of Flow-Count Fluorospheres (Beckman Coulter) were added to samples before analysis. Dead cells were excluded with propidium iodide (1 μg/ml; Sigma-Aldrich). Paraformaldehyde fixed dead cells were excluded with the LIVE/DEAD™ Fixable Near-IR Dead Cell Stain Kit (Thermo Fisher Scientific).
OVA mammary tumor cells were injected into the fourth inguinal mammary fat pads of 8 week- […]
n=8) or saline (n=8) on days (d) 6, 8, 10, 12, 14, 16, 18 and 21 after tumor cell implantation. […]
CD44hiCD62Llo CD8+ and CD4+ effector/memory (EM) T cells, CD4+CD25+FoxP3+ regulatory T cells (Tregs) and granulocytic and monocytic […]
CD8+ and CD4+ EM T cells were analysed by flow cytometry. In (a-d) representative results (means ± SEM) from at least two independent experiments are shown. In (d) significances were determined using a 1-way ANOVA Test.

[5] = Lck-Cre;Ptpn2fl/fl mice, individual mice (Figure 7D), listed as CMP-182
[6] = tumour-infiltrating cells, Lck-Cre;Ptpn2fl/fl mice n=6, individual mice (Figure 7C), listed as CMP-182
[7] = AT3-OVA tumor-bearing mice, 10 mg/kg i.v.
[8] = MC38 tumours, Figure 4B, listed as CMP-182
[9] = MC38 tumours, Figure 4C, listed as CMP-182
[10] = splenic CD8+ EM T cells, 10 mg/kg i.v., Fig. 3E raw data, listed as CMP-182, 10 mg/kg

CC(C)(O)CCOc1ccc2cc(O)c(N3CC(=O)NS3(=O)=O)c(F)c2c1 [Compound 182, 5-(1-Fluoro-3-hydroxy-7-(3-hydroxy-3-methylbutoxy)naphthalen-2-yl)−1,2,5-thiadiazolidin-3-one 1,1-dioxide]
IFNγ+TNF+ infiltrating CD8+ T cells in Lck-Cre;Ptpn2fl/fl mice (AT3-OVA mammary tumors; 10 mg/kg i.v.): significantly increased
GRZMB (AT3-OVA mammary tumors; [5]): 75.7 and 29.8 and 80.2 and 60 and 76.3 and 38.3
IFNg TNF (AT3-OVA mammary tumors; [5]): 26.1 and 36.3 and 38 and 37.5 and 35.3 and 36.7
TILs in AT3-OVA tumors of Lck-Cre;Ptpn2fl/fl mice (AT3-OVA mammary tumors; compared with untreated Lck-Cre;Ptpn2fl/fl mice): not accompanied by any significant changes
B cells (AT3-OVA mammary tumors; [6]): 170392 and 46995.6 and 105275 and 126695 and 155871 and 80840.6
CD4 EM (AT3-OVA mammary tumors; [6]): 52213.7 and 43853.2 and 131869 and 64047.3 and 133510 and 49758.5
CD8 EM (AT3-OVA mammary tumors; [6]): 137803 and 79204.9 and 701666 and 167038 and 463610 and 106200
MDSCs (AT3-OVA mammary tumors; [6]): 220000 and 235417 and 32287.6 and 56721.3 and 90563.2 and 25765.3
NK cells (AT3-OVA mammary tumors; [6]): 58097.7 and 15907.7 and 22173.4 and 86915 and 66469.7 and 20906.1
Tregs (AT3-OVA mammary tumors; [6]): 31347.8 and 26539.2 and 15097.8 and 25883.4 and 26206.9 and 21641.1
morbidity or systemic inflammation [1, 7]: not accompanied by overt signs of morbidity or systemic inflammation
overt toxicities ([1]; dosing every two days): did not result in any overt toxicities
liver fibrosis (Picrosirius red) [2]: no signs of liver fibrosis
lymphocytic infiltrates in liver, lungs, salivary glands and colon [2]: did not observe any overt lymphocytic infiltrates
TILs in MC38 tumors (MC38 colon tumors [3]; 10 mg/kg i.v.): increased TILs
CD4 EM, individual mice (MC38 colon tumors [3]; [8]): 7887.52 and 30840.7 and 10292.6 and 20601 and 9909.06
CD8 EM, individual mice (MC38 colon tumors [3]; [8]): 15044.4 and 39708.3 and 17222.4 and 39521.3 and 13554.1
GRZMB, individual mice (MC38 colon tumors [3]; [8]): 88.5 and 78.2 and 82.1 and 82.7 and 77.1
PD-1 TIM-3, individual mice (MC38 colon tumors [3]; [8]): 71 and 72.3 and 61.5 and 79.9 and 67.1
B cells, individual mice (MC38 colon tumors [3]; [9]): 1614.8 and 2825.59 and 875.433 and 4615.54 and 1539.85
MDSCs, individual mice (MC38 colon tumors [3]; [9]): 35014.8 and 125819 and 42394.5 and 66581.6 and 40317.8
NK cells, individual mice (MC38 colon tumors [3]; [9]): 12195.1 and 31635.4 and 14041.5 and 15109.2 and 9658.51
Tregs, individual mice (MC38 colon tumors [3]; [9]): 1910.56 and 8524.67 and 3417.74 and 9313.01 and 2270.7
Tumour weights MC38, individual mice (MC38 colon tumors [4]; 10 mg, Figure 4A, listed as CMP-182, in mg (unit assumed)): 243 and 125 and 480 and 119 and 315
Tumour growth MC38, individual mice (MC38 colon tumors [4]; 10 mg, day 7 post injection, listed as CMP-182, in mm2): 20.3252 and 20.2131 and 15.2865 and 13.9084 and 14.2859
Tumour growth MC38, individual mice (MC38 colon tumors [4]; 10 mg, day 10 post injection, listed as CMP-182, in mm2): 21.1854 and 45.7254 and 22.9296 and 28.815 and 21.9308
Tumour growth MC38, individual mice (MC38 colon tumors [4]; 10 mg, day 13 post injection, listed as CMP-182, in mm2): 21.6489 and 72.4458 and 32.816 and 40.3221 and 29.9376
Tumour growth MC38, individual mice (MC38 colon tumors [4]; 10 mg, day 15 post injection, listed as CMP-182, in mm2): 31.85 and 42.18 and 22.5 and 27 and 32.94
Tumour growth MC38, individual mice (MC38 colon tumors [4]; 10 mg, day 16 post injection, listed as CMP-182, in mm2): 29.5394 and 119.382 and 44.1741 and 56.472 and 40.779
Tumour growth MC38, individual mice (MC38 colon tumors [4]; 10 mg, day 18 post injection, listed as CMP-182, in mm2): 34.2 and 109.2 and 37.7 and 77.4 and 61.62
Tumour growth MC38, individual mice (MC38 colon tumors [4]; 10 mg, day 20 post injection, listed as CMP-182, in mm2): 38.76 and 109.2 and 38.35 and 60.8 and 61.62
growth of subcutaneous MC38 colorectal tumors (MC38 colon tumors [4]; 10 mg/kg i.v. every 2 days): repressed the growth
Tumour size, mean over all time points (MC38 colon tumors [4]; Figure 4A (MC38), CMP-182 10 mg, n=5, line printed as AT-3, in mm2): 42.78
Tumour weights, median (MC38 colon tumors [4]; MC38 tumours, CMP-182 10 mg, Figure 4A): 243.0, n=5
Tumour size, Predicted (LS) mean 2 (MC38 colon tumors [4]; MC38 tumours, CMP-182 10 mg, n=5, time point 7, Figure 4A, in mm2): 16.8
Tumour size, Predicted (LS) mean 2 (MC38 colon tumors [4]; MC38 tumours, CMP-182 10 mg, n=5, time point 10, Figure 4A, in mm2): 28.12
Tumour size, Predicted (LS) mean 2 (MC38 colon tumors [4]; MC38 tumours, CMP-182 10 mg, n=5, time point 13, Figure 4A, in mm2): 39.43
Tumour size, Predicted (LS) mean 2 (MC38 colon tumors [4]; MC38 tumours, CMP-182 10 mg, n=5, time point 15, Figure 4A, in mm2): 31.29
Tumour size, Predicted (LS) mean 2 (MC38 colon tumors [4]; MC38 tumours, CMP-182 10 mg, n=5, time point 16, Figure 4A, in mm2): 58.07
Tumour size, Predicted (LS) mean 2 (MC38 colon tumors [4]; MC38 tumours, CMP-182 10 mg, n=5, time point 18, Figure 4A, in mm2): 64.02
Tumour size, Predicted (LS) mean 2 (MC38 colon tumors [4]; MC38 tumours, CMP-182 10 mg, n=5, time point 20, Figure 4A, in mm2): 61.75
basal p-SFK and p-STAT-5 in splenic CD8+ effector/memory T cells (spleen; 10 mg/kg i.v.): enhanced
spleen weights and splenic T cell and myeloid numbers (spleen; [7]): unaltered
B cells Spleen (median) (spleen; Figure 3C, column B, n=8): 1202070, n=8
Nk cells Spleen (median) (spleen; Figure 3C, column B, n=8): 1062533, n=8
pSFK CD8 EM (median) (spleen; Figure 3E, column B, n=8): 356.5, n=8
pSTAT5 CD8 EM (median) (spleen; Figure 3E, column B, n=8): 960.5, n=8
p-SFK MFIs, single mice (spleen; [10]): 362 and 359 and 441 and 347 and 414 and 282 and 298 and 354
p-STAT-5 MFIs, single mice (spleen; [10]): 1043 and 825 and 973 and 931 and 1046 and 926 and 948 and 1137
